From ChEMBL document CHEMBL1201862, “PubChem BioAssay data set” (2004)
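Protocol summary: plate cells (96-well), add compound at 5 concentrations, incubate 48 h, interpolate endpoints linearly. The concentration for 50% growth inhibition is given as GI50.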 Activity calls are given as the source filed them. Rule as the data show it: active = GI50 up to about 1.1 µM and inactive = higher.

Experiments:
Experiment in all cases: NCI tumour cell line growth inhibition, 48 h
[1] = tested on: HT-29
[2] = tested on: MDA-N
[3] = tested on: SK-MEL-28
[4] = tested on: A498
[5] = tested on: NCI-H460
[6] = tested on: DU-145
[7] = tested on: SF-295
[8] = tested on: SK-MEL-5
[9] = tested on: 786-0
[10] = tested on: SN12C
[11] = tested on: SR
[12] = tested on: HCC 2998
[13] = tested on: OVCAR-8
[14] = tested on: HL-60
[15] = tested on: KM12
[16] = tested on: CCRF-CEM
[17] = tested on: SW-620
[18] = tested on: NCI-H226
[19] = tested on: SK-OV-3

Row | Structure (SMILES) | GI50 [1] | GI50 [2] | GI50 [3] | GI50 [4] | GI50 [5] | GI50 [6] | GI50 [7] | GI50 [8] | GI50 [9] | GI50 [10] | GI50 [11] | GI50 [12] | GI50 [13] | GI50 [14] | GI50 [15] | GI50 [16] | GI50 [17] | GI50 [18] | GI50 [19]
1 | O=C(NCCCCCCCCNC(=O)Nc1cccc2ccccc12)Nc1cccc2ccccc12 | > 100 µM (inactive) | 20.3 µM (inactive) | 57.7 µM (inactive) | 11 µM (inactive) | 3.5 µM (inactive) | > 100 µM (inactive) | 28.5 µM (inactive) | 42.3 µM (inactive) | 10.1 µM (inactive) | 18.4 µM (inactive) | > 10 µM (inactive) | 30.1 µM (inactive) | 18.5 µM (inactive) | 33.4 µM (inactive) | > 100 µM (inactive) | 12.9 µM (inactive) | 9.66 µM (inactive) |  | 
2 | COc1ccc2c(O)c(Oc3ccc(Cl)cc3)c(=O)oc2c1 | > 100 µM (inactive) | > 100 µM (inactive) | > 100 µM (inactive) | 38.5 µM (inactive) | > 100 µM (inactive) | 90.4 µM (inactive) | > 100 µM (inactive) | > 100 µM (inactive) | > 100 µM (inactive) | > 100 µM (inactive) | > 100 µM (inactive) | 75.7 µM (inactive) | > 100 µM (inactive) | > 100 µM (inactive) | > 100 µM (inactive) | > 100 µM (inactive) | > 100 µM (inactive) | > 100 µM (inactive) | 
3 | O=c1[nH]nc(Cc2ccccc2)n1/N=C/c1ccncc1 | > 100 µM (inactive) | > 100 µM (inactive) | > 100 µM (inactive) | 39 µM (inactive) | > 100 µM (inactive) | > 100 µM (inactive) | > 100 µM (inactive) | 64.4 µM (inactive) | > 100 µM (inactive) | > 100 µM (inactive) | > 100 µM (inactive) | > 100 µM (inactive) | > 100 µM (inactive) | > 100 µM (inactive) | > 100 µM (inactive) | > 100 µM (inactive) | > 100 µM (inactive) | > 100 µM (inactive) | 
4 | C=C1CCCCCCCCCCC12SCCC2CCCCSC (centres undefined) | 22.3 µM (inactive) | 34.4 µM (inactive) | 26.5 µM (inactive) | 20.8 µM (inactive) | 34.5 µM (inactive) | 40.6 µM (inactive) | 19.9 µM (inactive) | 17.3 µM (inactive) | 29.2 µM (inactive) | 24.3 µM (inactive) | 33.1 µM (inactive) | 21.4 µM (inactive) | 28.8 µM (inactive) | 26.5 µM (inactive) |  |  | 20.3 µM (inactive) | 20.4 µM (inactive) | 47.3 µM (inactive)
5 | O=C(/C=C/C=C/c1ccccc1)c1ccc2c(c1)CCCC2 | 28.4 µM (inactive) | 19.6 µM (inactive) | > 100 µM (inactive) | 38 µM (inactive) |  | 25.5 µM (inactive) | 58.3 µM (inactive) | 37.2 µM (inactive) | 39 µM (inactive) | 32.5 µM (inactive) | 21.2 µM (inactive) | 23 µM (inactive) | 33.1 µM (inactive) |  | 28.8 µM (inactive) | 27.8 µM (inactive) | 45.8 µM (inactive) | 41.1 µM (inactive) | 72.9 µM (inactive)
6 | COC(=O)C12CCC(C(=O)OC)(Cc3c(c4ccccc4n3S(=O)(=O)c3ccccc3)C1)C2=O (centres undefined) | > 46.3 µM (inactive) | > 100 µM (inactive) | > 100 µM (inactive) | > 100 µM (inactive) | > 67 µM (inactive) | > 100 µM (inactive) | > 51.1 µM (inactive) | 9.29 µM (inactive) | > 42.1 µM (inactive) | > 100 µM (inactive) | > 100 µM (inactive) | > 76.9 µM (inactive) | > 92.7 µM (inactive) |  | > 100 µM (inactive) | 1 µM (active) | > 100 µM (inactive) |  | > 70.8 µM (inactive)
7 | Oc1ccc2ccccc2c1CN(Cc1c(O)ccc2ccccc12)C1CCCCC1 | 21.6 µM (inactive) | 15.4 µM (inactive) | 22.8 µM (inactive) | 27 µM (inactive) | 20 µM (inactive) | 20.3 µM (inactive) | 37 µM (inactive) | 14.9 µM (inactive) | 15.6 µM (inactive) | 14.4 µM (inactive) | 21.3 µM (inactive) | 14.6 µM (inactive) | 21.3 µM (inactive) |  | 28.2 µM (inactive) | 27.3 µM (inactive) | 20.1 µM (inactive) |  | 42 µM (inactive)
8 | CN1CCN(c2cc3nc4cc(O)cc(O)c4c(O)c3cc2N)CC1 | 23.2 µM (inactive) | 23.4 µM (inactive) | 27.2 µM (inactive) | 21.6 µM (inactive) | 36.3 µM (inactive) | 46.5 µM (inactive) | 32.7 µM (inactive) | 18.5 µM (inactive) | 38.7 µM (inactive) | 1.5 µM (inactive) | 6.14 µM (inactive) | 16.2 µM (inactive) | 26.2 µM (inactive) | 20.1 µM (inactive) | 27.4 µM (inactive) | 13.4 µM (inactive) | 21.9 µM (inactive) | 1.95 µM (inactive) | 
9 | COc1ccc(O[C@H](COCc2ccccc2)C[C@@H]2COC(C)(C)O2)cc1 | > 100 µM (inactive) | > 100 µM (inactive) | > 100 µM (inactive) | > 100 µM (inactive) | > 100 µM (inactive) | > 100 µM (inactive) | > 100 µM (inactive) | > 100 µM (inactive) | > 100 µM (inactive) | > 100 µM (inactive) | > 100 µM (inactive) | > 100 µM (inactive) | > 100 µM (inactive) |  | > 100 µM (inactive) | > 100 µM (inactive) | > 100 µM (inactive) | > 100 µM (inactive) | > 100 µM (inactive)
10 | CCOC(=O)CCC(NC(=O)c1ccc(Nc2nc3ccccc3n3cccc23)cc1)C(=O)OCC (centres undefined) | 17.9 µM (inactive) | 28.4 µM (inactive) | 47.6 µM (inactive) | 70.1 µM (inactive) | 28.7 µM (inactive) | 28.9 µM (inactive) | 25.2 µM (inactive) | 31 µM (inactive) | 17 µM (inactive) |  | 15.3 µM (inactive) | 29.8 µM (inactive) | 19.6 µM (inactive) | > 100 µM (inactive) | 31.1 µM (inactive) | 54.8 µM (inactive) | 81.7 µM (inactive) |  | 24.1 µM (inactive)
11 | CCOC(=O)CCCc1cc(O)c2c(C)c3[nH]c4ccc(Cl)cc4c3c(C)c2n1 | 23.7 µM (inactive) | 34.9 µM (inactive) | 28.3 µM (inactive) | 15.3 µM (inactive) | 16.5 µM (inactive) | 23.8 µM (inactive) | 28.8 µM (inactive) | 19.8 µM (inactive) | 20.4 µM (inactive) | 27.3 µM (inactive) | 44.4 µM (inactive) | 44.4 µM (inactive) | 24.9 µM (inactive) | 24 µM (inactive) | 37.2 µM (inactive) | 42.5 µM (inactive) | 32.2 µM (inactive) | 19.1 µM (inactive) | 
12 | O=C(O)c1ccccc1C(=O)NCC1S(=O)(=O)OCCOS1(=O)=O | > 100 µM (inactive) | > 100 µM (inactive) | > 100 µM (inactive) | > 100 µM (inactive) | > 100 µM (inactive) | > 100 µM (inactive) | > 100 µM (inactive) | > 100 µM (inactive) | > 100 µM (inactive) | > 100 µM (inactive) | > 100 µM (inactive) | > 100 µM (inactive) | > 100 µM (inactive) | > 100 µM (inactive) |  | > 100 µM (inactive) | > 100 µM (inactive) | > 100 µM (inactive) | > 100 µM (inactive)
13 | N#Cc1nc(/C=C/c2cccnc2)oc1N | > 100 µM (inactive) | > 100 µM (inactive) | > 100 µM (inactive) | > 100 µM (inactive) | > 100 µM (inactive) | > 100 µM (inactive) | > 100 µM (inactive) | > 100 µM (inactive) | > 100 µM (inactive) | > 100 µM (inactive) | > 100 µM (inactive) | > 100 µM (inactive) |  | > 100 µM (inactive) | > 100 µM (inactive) | > 100 µM (inactive) | > 100 µM (inactive) | > 100 µM (inactive) | > 100 µM (inactive)
14 | CC1C(=O)C23OC[C@@]1(C)C1(O)CC[C@@H](C)[C@]21CC3=O (some centres undefined) | > 100 µM (inactive) | > 100 µM (inactive) | > 100 µM (inactive) |  | > 100 µM (inactive) | > 100 µM (inactive) | > 100 µM (inactive) | > 100 µM (inactive) | > 100 µM (inactive) | > 100 µM (inactive) | > 100 µM (inactive) | > 100 µM (inactive) | > 100 µM (inactive) | > 100 µM (inactive) | > 100 µM (inactive) | > 100 µM (inactive) | > 100 µM (inactive) | > 100 µM (inactive) | > 100 µM (inactive)
15 | CS(=O)(=O)Nc1ccc2c(c1)oc(=O)c1ccccc12 | > 100 µM (inactive) | > 100 µM (inactive) | > 100 µM (inactive) | > 100 µM (inactive) | > 100 µM (inactive) | > 100 µM (inactive) | > 100 µM (inactive) | > 100 µM (inactive) | > 100 µM (inactive) | > 100 µM (inactive) | > 100 µM (inactive) | > 100 µM (inactive) | > 100 µM (inactive) | > 100 µM (inactive) | > 100 µM (inactive) | > 100 µM (inactive) | > 100 µM (inactive) | > 100 µM (inactive) | 
